According to ChEMBL document CHEMBL3751761, “Analogues of boswellic acids as inhibitors of pro-inflammatory cytokines TNF-α and IL-6” (Bioorg Med Chem Lett, 2016):

Columns and labels:
[1] = system: PBMC; test: Anti-inflammatory activity in human PBMC assessed as inhibition of LPS-induced TNFalpha expression at 10 uM after 5 hrs; assay type: functional
[2] = system: PBMC; test: Anti-inflammatory activity in human PBMC assessed as inhibition of LPS-induced IL-6 expression at 10 uM after 5 hrs; assay type: functional
[3] = Cytotoxicity against human FR2 cells assessed as cell viability at 10 uM after 48 hrs by MTT assay; assay type: cell-based; settings: read-out: Activity
[4] = system: Mus musculus; test: Anti-inflammatory activity in BALB/c mouse assessed as inhibition of LPS-induced TNFalpha expression at 10 mg/kg, po pre-treated for 1 hr followed by LPS administration measured 2.5 hrs after LPS challenge by ELISA; assay type: functional
[5] = system: Mus musculus; test: Anti-inflammatory activity in BALB/c mouse assessed as inhibition of LPS-induced IL-6 expression at 10 mg/kg, po pre-treated for 1 hr followed by LPS administration measured 2.5 hrs after LPS challenge by ELISA; assay type: functional

SMILES: CCC(=O)O[C@@H]1CC[C@@]2(C)[C@@H](CC[C@]3(C)[C@@H]2CC=C2[C@@H]4[C@@H](C)[C@H](C)CC[C@]4(C)CC[C@]23C)[C@@]1(C)C(=O)O
- inhibition at 10 µM [1]: 40%
- inhibition at 10 µM [2]: 43.5%

SMILES: CCCC(=O)O[C@@H]1CC[C@@]2(C)[C@@H](CC[C@]3(C)[C@@H]2CC=C2[C@@H]4[C@@H](C)[C@H](C)CC[C@]4(C)CC[C@]23C)[C@@]1(C)C(=O)O
- inhibition at 10 µM [1]: 41.4%
- inhibition at 10 µM [2]: 34.8%

SMILES: CCC(=O)O[C@@H]1CC[C@@]2(C)[C@@H](CC[C@]3(C)[C@@H]2C(=O)C=C2[C@@H]4[C@@H](C)[C@H](C)CC[C@]4(C)CC[C@]23C)[C@@]1(C)C(=O)O
- inhibition at 10 µM [1]: 38.9%
- inhibition at 10 µM [2]: 36.6%

SMILES: CCCC(=O)O[C@@H]1CC[C@@]2(C)[C@@H](CC[C@]3(C)[C@@H]2C(=O)C=C2[C@@H]4[C@@H](C)[C@H](C)CC[C@]4(C)CC[C@]23C)[C@@]1(C)C(=O)O
- inhibition at 10 µM [1]: 34.1%
- inhibition at 10 µM [2]: 22.5%

SMILES: CCCC(=O)O[C@H]1CC[C@@]2(C)[C@@H](CC[C@]3(C)[C@@H]2CC=C2[C@@H]4[C@@H](C)[C@H](C)CC[C@]4(C)CC[C@]23C)[C@@]1(C)C(=O)O
- inhibition at 10 µM [1]: 68.9%
- inhibition at 10 µM [2]: 39.5%
- viability at 48 h, 10 µM [3]: 83%
- inhibition in vivo at 10 mg/kg [4]: 58.7%
- inhibition in vivo at 10 mg/kg [5]: 51.6%

SMILES: CCCC(=O)O[C@H]1CC[C@@]2(C)[C@@H](CC[C@]3(C)[C@@H]2C(=O)C=C2[C@@H]4[C@@H](C)[C@H](C)CC[C@]4(C)CC[C@]23C)[C@@]1(C)C(=O)O
- inhibition at 10 µM [1]: 44.2%
- inhibition at 10 µM [2]: 52.3%
- viability at 48 h, 10 µM [3]: 80%
- inhibition in vivo at 10 mg/kg [4]: 37.8%
- inhibition in vivo at 10 mg/kg [5]: 48.5%

SMILES: C[C@H]1[C@H](C)CC[C@]2(C)CC[C@]3(C)C(=CC(=O)[C@@H]4[C@@]5(C)CC[C@H](O)[C@](C)(C(=O)O)[C@@H]5CC[C@]43C)[C@H]12
- inhibition at 10 µM [1]: 53.5%
- inhibition at 10 µM [2]: 49.6%
- viability at 48 h, 10 µM [3]: 100%
- inhibition in vivo at 10 mg/kg [4]: 71.3%
- inhibition in vivo at 10 mg/kg [5]: 28.9%

SMILES: CC(=O)O[C@H]1CC[C@@]2(C)[C@@H](CC[C@]3(C)[C@@H]2CC=C2[C@@H]4[C@@H](C)[C@H](C)CC[C@]4(C)CC[C@]23C)[C@@]1(C)C(=O)O
- inhibition at 10 µM [1]: 57.9%
- inhibition at 10 µM [2]: 51.1%
- viability at 48 h, 10 µM [3]: 99%
- inhibition in vivo at 10 mg/kg [5]: 19.5%

SMILES: CC(=O)O[C@H]1CC[C@@]2(C)[C@@H](CC[C@]3(C)[C@@H]2C(=O)C=C2[C@@H]4[C@@H](C)[C@H](C)CC[C@]4(C)CC[C@]23C)[C@@]1(C)C(=O)O
- inhibition at 10 µM [1]: 39.6%
- inhibition at 10 µM [2]: 44.7%

SMILES: CC(=O)O[C@@H]1CC[C@@]2(C)[C@@H](CC[C@]3(C)[C@@H]2CC=C2[C@@H]4[C@@H](C)[C@H](C)CC[C@]4(C)CC[C@]23C)[C@@]1(C)C(=O)O
- inhibition at 10 µM [1]: 43.8%

SMILES: CC(=O)O[C@@H]1CC[C@@]2(C)[C@@H](CC[C@]3(C)[C@@H]2CC=C2[C@@H]4[C@@H](C)[C@H](C)CC[C@]4(C)CC[C@]23C)[C@@]1(C)N=C=O
- inhibition at 10 µM [1]: 40.6%

SMILES: CC(=O)O[C@@H]1CC[C@]2(C)[C@H]3CC=C4[C@@H]5[C@@H](C)[C@H](C)CC[C@]5(C)CC[C@@]4(C)[C@]3(C)CC[C@H]2[C@@]1(C)N
- inhibition at 10 µM [1]: 68.3%
- inhibition at 10 µM [2]: 63.3%
- viability at 48 h, 10 µM [3]: 100%
- inhibition in vivo at 10 mg/kg [4]: 39.5%
- inhibition in vivo at 10 mg/kg [5]: 41.4%

SMILES: CC(=O)O[C@@H]1CC[C@]2(C)[C@H]3C(=O)C=C4[C@@H]5[C@@H](C)[C@H](C)CC[C@]5(C)CC[C@@]4(C)[C@]3(C)CC[C@H]2[C@@]1(C)N
- inhibition at 10 µM [1]: 78.9%
- inhibition at 10 µM [2]: 58.4%
- viability at 48 h, 10 µM [3]: 97%
- inhibition in vivo at 10 mg/kg [4]: 53.3%
- inhibition in vivo at 10 mg/kg [5]: 39.1%

SMILES: CCCCCC(=O)O[C@H]1CC[C@@]2(C)[C@@H](CC[C@]3(C)[C@@H]2C(=O)C=C2[C@@H]4[C@@H](C)[C@H](C)CC[C@]4(C)CC[C@]23C)[C@@]1(C)C(=O)O
- inhibition at 10 µM [1]: 44.7%
- inhibition at 10 µM [2]: 64%
- viability at 48 h, 10 µM [3]: 85%
- inhibition in vivo at 10 mg/kg [4]: 30.7%
- inhibition in vivo at 10 mg/kg [5]: 44.1%

SMILES: CCCCCC(=O)O[C@H]1CC[C@@]2(C)[C@@H](CC[C@]3(C)[C@@H]2CC=C2[C@@H]4[C@@H](C)[C@H](C)CC[C@]4(C)CC[C@]23C)[C@@]1(C)C(=O)O
- inhibition at 10 µM [1]: 42.5%
- inhibition at 10 µM [2]: 53.4%
- viability at 48 h, 10 µM [3]: 97%
- inhibition in vivo at 10 mg/kg [4]: 59.3%
- inhibition in vivo at 10 mg/kg [5]: 41.6%

SMILES: CCCCCC(=O)O[C@@H]1CC[C@@]2(C)[C@@H](CC[C@]3(C)[C@@H]2CC=C2[C@@H]4[C@@H](C)[C@H](C)CC[C@]4(C)CC[C@]23C)[C@@]1(C)C(=O)O
- inhibition at 10 µM [1]: 72.3%
- inhibition at 10 µM [2]: 50.5%
- viability at 48 h, 10 µM [3]: 89%
- inhibition in vivo at 10 mg/kg [4]: 42.5%
- inhibition in vivo at 10 mg/kg [5]: 57.5%

SMILES: CCCCCC(=O)O[C@@H]1CC[C@@]2(C)[C@@H](CC[C@]3(C)[C@@H]2C(=O)C=C2[C@@H]4[C@@H](C)[C@H](C)CC[C@]4(C)CC[C@]23C)[C@@]1(C)C(=O)O
- inhibition at 10 µM [1]: 18.3%
- inhibition at 10 µM [2]: 13.8%

SMILES: C[C@H]1[C@H](C)CC[C@]2(C)CC[C@]3(C)C(=CC[C@@H]4[C@@]5(C)CC[C@H](O)[C@](C)(C(=O)O)[C@@H]5CC[C@]43C)[C@H]12
- inhibition at 10 µM [1]: 41.4%
- inhibition at 10 µM [2]: 42.3%

SMILES: CC(=O)O[C@@H]1CC[C@@]2(C)[C@@H](CC[C@]3(C)[C@@H]2C(=O)C=C2[C@@H]4[C@@H](C)[C@H](C)CC[C@]4(C)CC[C@]23C)[C@@]1(C)N=C=O
- inhibition at 10 µM [1]: 40.6%
- inhibition at 10 µM [2]: 69.8%
- viability at 48 h, 10 µM [3]: 91%
- inhibition in vivo at 10 mg/kg [4]: 26.4%
- inhibition in vivo at 10 mg/kg [5]: 40.2%

SMILES: C[C@H]1[C@H](C)CC[C@]2(C)CC[C@]3(C)C(=CC(=O)[C@@H]4[C@@]5(C)CC[C@@H](O)[C@](C)(C(=O)O)[C@@H]5CC[C@]43C)[C@H]12 [11-KETO BOSWELLIC ACID]
- inhibition at 10 µM [1]: 56.3%
- inhibition at 10 µM [2]: 59.6%
- viability at 48 h, 10 µM [3]: 86%
- inhibition in vivo at 10 mg/kg [4]: 58.7%
- inhibition in vivo at 10 mg/kg [5]: 61.6%

SMILES: CC(=O)O[C@@H]1CC[C@@]2(C)[C@@H](CC[C@]3(C)[C@@H]2C(=O)C=C2[C@@H]4[C@@H](C)[C@H](C)CC[C@]4(C)CC[C@]23C)[C@@]1(C)C(=O)O [AKBA]
- inhibition at 10 µM [1]: 55%
- inhibition at 10 µM [2]: 53.9%
- viability at 48 h, 10 µM [3]: 100%
- inhibition in vivo at 10 mg/kg [4]: 70.7%
- inhibition in vivo at 10 mg/kg [5]: 54.3%

SMILES: C[C@H]1[C@H](C)CC[C@]2(C)CC[C@]3(C)C(=CC[C@@H]4[C@@]5(C)CC[C@@H](O)[C@](C)(C(=O)O)[C@@H]5CC[C@]43C)[C@H]12 [BOSWELLIC ACID]
- inhibition at 10 µM [1]: 44.5%
- inhibition at 10 µM [2]: 48.6%
- viability at 48 h, 10 µM [3]: 73%
- inhibition in vivo at 10 mg/kg [4]: 50.8%
- inhibition in vivo at 10 mg/kg [5]: 53%

SMILES: COc1ccc(C2CNC(=O)C2)cc1OC1CCCC1 (centres undefined) [ROLIPRAM]
- inhibition at 10 µM [1]: 34.6%
- inhibition at 10 µM [2]: 26.2%
- inhibition in vivo at 10 mg/kg [4]: 48.1%
- inhibition in vivo at 10 mg/kg [5]: 36.9%
